Source: patent publication US8647835B2, “Methods for separation, characterization and/or identification of microorganisms using spectroscopy” (bio Mérieux, Inc., priority 2008, dated 2014)

How the values were obtained:
Type in all cases: cell-based
[1] = test system: Streptococcus pneumoniae, strain WM-43; test: Gram stain and viability of S. pneumoniae recovered from pellet after detergent lysis buffer; settings: for Viability of Pellet: 1:100 dilution plated onto Sheep Blood Agar, scale NG to 4+
Method: (§1) Lysis buffers were prepared containing detergents of differing structure and lytic activity in a base buffer formulation of 0.3M CAPS, pH 11.7. These lysis buffers were functionally assessed using positive blood culture broth containing a clinical microorganism strain known to be sensitive to detergents and alkaline pH conditions, Streptococcus pneumoniae, strain WM-43. Parameters evaluated were microbial intrinsic fluorescence levels (Excitation-Emission Matrix spectra), separation efficiency, appearance of isolated microbial pellet, and Gram stain characteristics and viability of microorganisms recovered from the pellet beneath the density cushion.
(§2) The procedure was performed as follows:
(§3) Mix 2 parts of positive broth with 1 part of test lysis buffer, incubate in a 37 C water bath for 1 minute to lyse blood cells, then layer 0.5 mL of lysate over 0.2 mL of density cushion (14% w/v Iohexyl+1.93% w/v NaCl+10 mM Hepes, pH 7.4) dispensed into a 2-piece optical separation tube which was then hermetically sealed with a screw-cap. After centrifuging the tube in an Eppendorf® 5417R micrcentrifuge fitted with a A-8-11 swing out rotor (Eppendorf, New York) for 2 minutes at 10,000 rpm, the tube was placed into a custom-built adapter which coupled the base of the tube directly to a 400 micron fiber optic probe connected to a spectrofluorimeter (Fluorolog® 3 (HORIBA Jobin Yvon Inc., New Jersey), and a complete EEM scan was taken (Ex 260-850 nm; Em 260-1100 nm; every 5 nm). Following the scan, the supernatant was removed and the microbial pellet resuspended in 0.5 mL of Tryptic Soy Broth (TSB). Smears of the suspensions were prepared for Gram staining and twenty microliters of a 1:100 dilution were plated onto Sheep Blood Agar plates for viability estimation on a scale of NG (no growth) to 4+ (maximal growth).

[2] = test system: Streptococcus pneumoniae, strain WM-43; test: Intrinsic fluorophores of S. pneumoniae pellet after detergent lysis buffer; settings: for Flavin/NADH surrogate marker for viability: S. pneumoniae cell pellet; for Flavin / NADH / Tryptophan: intrinsic fluorophore level of S. pneumoniae cell pellet, detergent in 0.3M CAPS, pH 11.7; for NADH/Flavin: ratio of fluorescence signals of S. pneumoniae cell pellet
Method: as §1, §2, §3
The effect of the test detergents on the level of intrinsic fluorophores present within the S. pneumoniae cell pellet is shown in Table 5. As taught by the results presented in Example 3, the ratio of Flavin to NADH fluorescence is an excellent indicator of this sensitive microbe's health. Low ratios are associated with reduced microbial viability, such as observed with n-octyl glucoside and CHAPS detergents. The four groups represented in Table 5 fall into categories that directly correlate with the alterations observed in Gram reactivity of the S. pneumoniae cells recovered from the pellet (Table 4).

[3] = test system: S. pneumoniae strain, WM43; test: Viability of recovered S. pneumoniae with lysis buffer / density cushion combinations (Example 7); settings: irrespective of the makeup of the density cushion

Compound | Viability of Pellet [1] | Gram Stain of Pellet, Bacteria (cocci): Gram positive ([1]; detergent at table concentration (0.45-3.0%) in 0.3M CAPS, pH 11.7, 1 minute 37 C, 'No organisms seen' applies to all cocci) | Flavin/NADH surrogate marker for viability [2] | Flavin [2] | NADH [2] | Tryptophan [2] | NADH/Flavin [2] | Gram Stain of Pellet, Bacteria (cocci): Gram negative ([1]; detergent at table concentration (0.45-3.0%) in 0.3M CAPS, pH 11.7, 1 minute 37 C) | viability of the recovered S. pneumoniae cells [3] | effect on Gram reaction / Gram reactivity of S. pneumoniae isolate ([1]; desired lysis conditions of Example 6)
CCCCCCCCO[C@@H]1O[C@H](CO)[C@@H](O)[C@H](O)[C@H]1O [Detergent 1, n-octyl glucoside] | No growth | No organisms seen | Low ratios | 71,678 | 33,268 | 606,171 | 0.5 | – | – | –
C[C@H](CCC(=O)NCCC[N+](C)(C)CCCS(=O)(=O)[O-])[C@H]1CC[C@H]2[C@@H]3[C@H](O)C[C@@H]4C[C@H](O)CC[C@]4(C)[C@H]3C[C@H](O)[C@]12C [Detergent 2, CHAPS] | Scant | – | Low ratios | 77,403 | 55,976 | 607,343 | 0.7 | Rare Gram | – | –
polyoxyethylene (20) oleyl ether [Detergent 12] | – | – | significant improvement | 29,781 | 1,703,221 | 1,047,866 | 57.2 | – | – | –
(Octylphenoxy)polyethoxyethanol [Detergent 4] | – | – | – | 38,703 | 1,300,815 | 1,019,649 | 33.6 | – | – | –
CCCCCCCCCCCCOCCOCCOCCOCCOCCOCCOCCOCCOCCO [Detergent 6, nonaethylene glycol monododecyl ether] | – | – | – | – | – | – | 34.5 | – | not as high | relatively minor effect
